Assay results taken from the supplement of paper PMC11451515.

Tested on: NOMO1
Assay: cell viability relative to DMSO control; higher = less cytotoxic
Settings: 48 h
How it was run: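 Viability values are per-plate percentages of DMSO wells, with background from cell-free wells. Library compounds in DMSO were pin-dosed, in an 11-point threefold series from 47 μM to 0.79 nM, onto NOMO1 or SEM (500 cells/well) or P12-Ichikawa (1000 cells/well) leukemia cells in 1536-well plates (5 μl). Those cells had been adapted for at least four passages in each medium, and CellTiter-Glo One luminescence was read after 48 h at 37°C.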

[1] = HPLM + 10% dialyzed FBS, 0.000781 µM
[2] = HPLM + 10% dialyzed FBS, 0.00234 µM
[3] = HPLM + 10% dialyzed FBS, 0.00702 µM
[4] = HPLM + 10% dialyzed FBS, 0.0211 µM
[5] = HPLM + 10% dialyzed FBS, 0.0632 µM
[6] = HPLM + 10% dialyzed FBS, 0.19 µM
[7] = HPLM + 10% dialyzed FBS, 0.569 µM
[8] = HPLM + 10% dialyzed FBS, 1.71 µM
[9] = HPLM + 10% dialyzed FBS, 5.12 µM
[10] = HPLM + 10% dialyzed FBS, 15.4 µM
[11] = HPLM + 10% dialyzed FBS, 46.1 µM
[12] = RPMI 5 mM glucose + 10% FBS, 0.000781 µM
[13] = RPMI 5 mM glucose + 10% FBS, 0.00234 µM
[14] = RPMI 5 mM glucose + 10% FBS, 0.00702 µM
[15] = RPMI 5 mM glucose + 10% FBS, 0.0211 µM
[16] = RPMI 5 mM glucose + 10% FBS, 0.0632 µM
[17] = RPMI 5 mM glucose + 10% FBS, 0.19 µM
[18] = RPMI 5 mM glucose + 10% FBS, 0.569 µM
[19] = RPMI 5 mM glucose + 10% FBS, 1.71 µM
[20] = RPMI 5 mM glucose + 10% FBS, 5.12 µM
[21] = RPMI 5 mM glucose + 10% FBS, 15.4 µM
[22] = RPMI 5 mM glucose + 10% FBS, 46.1 µM
[23] = RPMI 5 mM glucose + 10% dialyzed FBS, 0.000781 µM
[24] = RPMI 5 mM glucose + 10% dialyzed FBS, 0.00234 µM
[25] = RPMI 5 mM glucose + 10% dialyzed FBS, 0.00702 µM
[26] = RPMI 5 mM glucose + 10% dialyzed FBS, 0.0211 µM
[27] = RPMI 5 mM glucose + 10% dialyzed FBS, 0.0632 µM
[28] = RPMI 5 mM glucose + 10% dialyzed FBS, 0.19 µM
[29] = RPMI 5 mM glucose + 10% dialyzed FBS, 0.569 µM
[30] = RPMI 5 mM glucose + 10% dialyzed FBS, 1.71 µM
[31] = RPMI 5 mM glucose + 10% dialyzed FBS, 5.12 µM
[32] = RPMI 5 mM glucose + 10% dialyzed FBS, 15.4 µM
[33] = RPMI 5 mM glucose + 10% dialyzed FBS, 46.1 µM

Row | SMILES | cell viability [1] | cell viability [2] | cell viability [3] | cell viability [4] | cell viability [5] | cell viability [6] | cell viability [7] | cell viability [8] | cell viability [9] | cell viability [10] | cell viability [11] | cell viability [12] | cell viability [13] | cell viability [14] | cell viability [15] | cell viability [16] | cell viability [17] | cell viability [18] | cell viability [19] | cell viability [20] | cell viability [21] | cell viability [22] | cell viability [23] | cell viability [24] | cell viability [25] | cell viability [26] | cell viability [27] | cell viability [28] | cell viability [29] | cell viability [30] | cell viability [31] | cell viability [32] | cell viability [33]
1 | Cc1cc(SCc2sc(-c3ccc(C(F)(F)F)cc3)nc2C)ccc1OCC(=O)O | 102% | 113% | 97.5% | 124% | 109% | 110% | 104% | 92.3% | 102% | 94.8% | 78.1% | 100% | 97.1% | 85.9% | 99.1% | 90.3% | 95% | 90.7% | 102% | 86.6% | 91.4% | 81.9% | 93.2% | 95.1% | 101% | 108% | 92.2% | 102% | 99.6% | 97.7% | 101% | 89.2% | 83.1%
2 | CCc1c(O)cc(O)c(C(=O)c2ccc(OCCN3CCOCC3)c(OC)c2)c1CC(=O)N(CCOC)CCOC | 102% | 106% | 117% | 127% | 127% | 119% | 114% | 80.7% | 21.2% | 13.7% | 11.6% | 101% | 101% | 113% | 106% | 118% | 124% | 109% | 93.4% | 21.6% | 12.3% | 11.3% | 115% | 114% | 114% | 108% | 114% | 106% | 102% | 98.8% | 28.2% | 16.4% | 14.1%
3 | Cc1ccc(NC(=O)c2cccc(N(C)C)c2)cc1NC(=O)c1ccc(O)cc1 | 127% | 119% | 115% | 121% | 151% | 136% | 146% | 122% | 120% | 136% | 105% | 114% | 110% | 107% | 108% | 113% | 109% | 121% | 118% | 118% | 121% | 106% | 110% | 114% | 115% | 121% | 116% | 110% | 116% | 126% | 138% | 108% | 107%
4 | FC(F)(F)C1=CC=C2C(SCCCCCO\C3=C\O\C(CN4CCOCC4)=C/C3=O)=CC=NC2=C1 | 96% | 122% | 144% | 119% | 122% | 139% | 137% | 128% | 131% | 124% | 107% | 116% | 124% | 107% | 103% | 118% | 135% | 118% | 121% | 122% | 112% | 109% | 99.3% | 118% | 105% | 114% | 131% | 112% | 125% | 129% | 114% | 109% | 92.4%
5 | COc1cc(NC(=O)c2ccc(-c3ccc(Cl)cc3)o2)cc(OC)c1 | 95.5% | 103% | 112% | 112% | 114% | 118% | 112% | 104% | 61.8% | 52.7% | 39.6% | 91.4% | 106% | 104% | 100% | 101% | 110% | 108% | 92.1% | 58.7% | 74.4% | 72.3% | 97.5% | 111% | 108% | 108% | 111% | 115% | 109% | 94.9% | 66.8% | 50.7% | 62.8%
6 | COC1=CC(=CC=C1)C2=CC=C(NC(=O)/C3=C(/CCC3)C(O)=O)C(=C2)F | 122% | 114% | 128% | 113% | 105% | 87.8% | 115% | 112% | 103% | 100% | 92.1% | 102% | 109% | 103% | 97.8% | 96.3% | 116% | 99.2% | 109% | 104% | 96% | 84.7% | 115% | 105% | 122% | 121% | 120% | 121% | 113% | 107% | 106% | 102% | 63.8%
7 | CNC(=O)c1ccc(N2C(=S)N(c3ccc(C#N)c(C(F)(F)F)c3)C(=O)C2(C)C)cc1F | 87.7% | 114% | 105% | 125% | 117% | 127% | 120% | 115% | 143% | 127% | 111% | 93% | 124% | 121% | 118% | 125% | 111% | 111% | 121% | 123% | 121% | 115% | 102% | 112% | 103% | 113% | 121% | 116% | 124% | 126% | 115% | 121% | 114%
8 | O=C([O-])[C@H](CC(=O)N1C[C@H]2CCCC[C@H]2C1)Cc1ccccc1 | 116% | 120% | 135% | 133% | 138% | 123% | 128% | 145% | 134% | 156% | 122% | – | – | – | – | – | – | – | – | – | – | – | – | – | – | – | – | – | – | – | – | – | –
9 | COC(=O)Nc1ccc(-c2nc(N3CCOCC3)c3cnn(C4CCN(Cc5cccnc5)CC4)c3n2)cc1 | 117% | 117% | 132% | 108% | 88.6% | 76.4% | 70.3% | 70.6% | 26.3% | 19.4% | 9.7% | 106% | 117% | 119% | 105% | 110% | 92.4% | 88.7% | 82.6% | 45.4% | 32.4% | 17.6% | – | – | – | – | – | – | – | – | – | – | –
10 | CN(CCOc1ccc(NS(C)(=O)=O)cc1)CCc1ccc(NS(C)(=O)=O)cc1 | 108% | 126% | 110% | 116% | 136% | 138% | 147% | 133% | 131% | 135% | 134% | 121% | 119% | 109% | 129% | 117% | 120% | 135% | 120% | 141% | 118% | 136% | – | – | – | – | – | – | – | – | – | – | –
11 | COC/1=C/[C@@H]2[C@@H]3CC4=C(C(=C(OC)C=C4)O)[C@]2(CCN3C)CC1=O | 117% | 123% | 151% | 147% | 151% | 135% | 147% | 161% | 135% | 131% | 113% | 118% | 124% | 135% | 165% | 144% | 148% | 148% | 139% | 153% | 141% | 126% | – | – | – | – | – | – | – | – | – | – | –
12 | C[C@]12CC[C@@H]3c4ccc(O)cc4CC[C@H]3[C@@H]1CC[C@@H]2O | 124% | 124% | 124% | 112% | 117% | 115% | 117% | 116% | 112% | 56.3% | 46.9% | – | – | – | – | – | – | – | – | – | – | – | 107% | 116% | 105% | 133% | 128% | 116% | 104% | 103% | 104% | 91.8% | 35.6%
13 | CCCc1nc2c(C)cc(-c3nc4ccccc4n3C)cc2n1Cc1ccc(-c2ccccc2C(=O)O)cc1 | 117% | 102% | 112% | 110% | 139% | 140% | 136% | 138% | 127% | 134% | 134% | 123% | 123% | 139% | 126% | 150% | 144% | 131% | 143% | 150% | 145% | 132% | – | – | – | – | – | – | – | – | – | – | –
14 | O=C(O)c1ccc(-c2c[nH]c3ncc(-c4ccccc4)cc23)cc1C1CCCC1 | 114% | 120% | 121% | 130% | 134% | 134% | 131% | 138% | 126% | 134% | 110% | 118% | 108% | 131% | 123% | 127% | 123% | 130% | 132% | 113% | 115% | 117% | 108% | 127% | 112% | 133% | 137% | 126% | 125% | 132% | 120% | 105% | 119%
15 | O=C(c1ccc(/C=C/c2n[nH]c3ccccc23)cc1)N1CCNCC1 | 108% | 96.5% | 88.4% | 87.1% | 97.9% | 120% | 115% | 69.4% | 70.9% | 88.7% | 73.1% | 97% | 100% | 94% | 85.8% | 90.7% | 86.2% | 87.1% | 56.2% | 63.8% | 58.4% | 69% | 86.5% | 85.6% | 88.6% | 97.2% | 87.8% | 97.4% | 93.9% | 54.9% | 49.5% | 65.5% | 71.2%
16 | C[C@H]1[C@H](O)O[C@@H]2O[C@@]3(C)CC[C@H]4[C@H](C)CC[C@@H]1[C@@]24OO3 | 86% | 97.3% | 81% | 92.6% | 89.9% | 96% | 84.4% | 58.1% | 13.4% | 9.81% | 15.4% | 80.2% | 80.5% | 93.2% | 97.2% | 91.9% | 92.2% | 88% | 56.3% | 14.9% | 7.4% | 8.31% | 99.8% | 96% | 92% | 85.7% | 89% | 104% | 93.8% | 64.4% | 17.5% | 12.2% | 15.6%
17 | CCCC(CCC)C(=O)[O-] | 106% | 105% | 113% | 122% | 116% | 120% | 109% | 110% | 101% | 84.9% | 63.8% | 86.1% | 96.6% | 107% | 123% | 106% | 113% | 107% | 102% | 111% | 94.4% | 92.1% | 75.5% | 108% | 105% | 106% | 112% | 116% | 114% | 109% | 98.6% | 110% | 101%
